Where two headings read alike, the source gives them in different places.
Key:
Format in all cases: in vivo, mouse
[1] = tested on: Shank3 complete knockout mice; assay: Grooming Test in Shank3 complete knockout mice; settings: for acute effect on grooming: single IP dose, 20 min postdose, Day 1
Method: Animals. The breeding conditions and genotyping methods for Sapap3 and Shank3 complete knockout mice were the same as described in Welch et al. (Nature 2007, 448(7156):894-900) and in Wang et al. (Nat. Commun. 2016, 7:11459), respectively. Homozygous knockout mice and littermate wild type mice of both genders were used at 4 to 8 weeks of age.
Compound formulation. The test compounds were dissolved in a small volume of dimethyl sulfoxide (DMSO) and diluted in an aqueous solution of 2-hydroxypropyl-beta-cyclodextrin (HP-β-CD) and administered IP. Dosing volume was 10 mL/kg. At 20 minutes after dosing, the mice were subjected to the behavioral test as described below.
Testing room and apparatus. The test room was maintained under the same conditions as the colony rooms, except the mice were housed in conventional shoe-box cages with food, water, and nesting materials. Animals were housed in the test room 48-72 hours prior to testing, in order to permit the mice to fully acclimate to the test room and conventional housing cages before testing. Tests were conducted in white polyvinyl-fluoride hard-sided foam test arenas (20×20×12 cm). The arenas were indirectly illuminated by dimmable LED light bars placed level with the arena floor and 30 cm away from the external wall of the test arena. This permitted the internal area of the arena to be evenly illuminated at approximately 40 lux. The illumination levels where the mice were housed before testing were about 80-100 lux.
Testing procedure. Mice were carefully placed into the test arenas 20 minutes after compound administration. Animals were given free exploration of the arena for 10 minutes, after which they were gently sprayed with 4 quick pumps of a water mist (total water volume approximated 1.5-1.7 mL). Mice were then allowed an additional 10 minutes to self-groom and engage in other behaviors before being removed from the arena. All tests were videotaped using cameras mounted above the testing arena and were saved to digital media format using Noldus Media Player software (Noldus Information Technologies, Leesburg, Va.). The mice were only tested once in the acute studies and were repeatedly tested in the sustained effect studies.
Quantitation of grooming bouts. Analyses of the video recordings were conducted with TopScan behavioral recognition software (Cleversys Inc, Reston, Va.). Configurations were made which scored time spent in grooming. […] These settings permitted automated scoring of grooming by TopScan that corresponded well to manual-scoring of these behaviors by a trained blinded observer using Noldus Observer XT9 (Noldus Information Technologies), with an average corrected kappa of 0.925 (range 0.807-0.983).
Statistical analyses. Data are presented as means and standard error of the means (SEMs). Analyses were conducted using SPSS 23 (IBM SPSS Statistics, Chicago, Ill.). Time spent in grooming behavior (seconds) over the 10-minute pre- and post-spray time blocks were analyzed with repeated measures analyses of variance (RMANOVA). The pre- and post-spray times were used for the within subject effects and the genotype and compound treatment condition were used as the between subject effects. In sustained effect studies, days were also used for a within subject effect. […]
The amount of time mice spent grooming in a novel environment was quantified in Shank3 complete knockout mice (Wang et al. Nat. Commun. 2016, 7:11459) and their wild type littermates for 10 minutes. […]

[2] = tested on: wild type mice (male NMRI); assay: Marble Burying Test in wild type mice
In short: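 Male NMRI mice, 12 per group, received compound in 0.5% DMSO/4% HP-β-CD PO or IP 20 min before test. Marbles (25) buried two-thirds or more in sawdust were counted over a blind 30-min session. Groups were compared with vehicle by Kruskal-Wallis then Mann-Whitney U.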

[3] = Clearance of compound from plasma after IP dosing in mice
[4] = single dose 3 mg/kg IP on Day 1
[5] = Mus musculus, ip, read-out: Percent Change in marbles buried relative to vehicle
[6] = Mus musculus, po, read-out: Percent Change in marbles buried relative to vehicle

time to clearance of the compound from plasma [3]	SMILES	acute effect on grooming [1]	significantly reduced grooming through Day [1, 4]	change in vivo at 0.03 mg/kg ([2]; Mus musculus, ip, 0.03 mg/kg, read-out: Percent Change in marbles buried relative to vehicle)	change in vivo at 0.1 mg/kg [2, 5]	change in vivo at 0.3 mg/kg [2, 5]	change in vivo at 0.316 mg/kg [2, 5]	change in vivo at 3 mg/kg [2, 5]	change in vivo at 10 mg/kg [2, 5]	change in vivo at 0.1 mg/kg [2, 6]	change in vivo at 0.3 mg/kg [2, 6]	change in vivo at 3 mg/kg [2, 6]	change in vivo at 10 mg/kg [2, 6]	efficacy in the Marble Burying Test ([2]; lowest test concentration of 1 mg/kg, IP)	significantly reduced grooming through Day ([1]; single dose 1 mg/kg IP on Day 1)	change in vivo at 1 mg/kg [2, 6]	change in vivo at 1.78 mg/kg ([2]; Mus musculus, po, 1.78 mg/kg, read-out: Percent Change in marbles buried relative to vehicle)
–	Cc1ccc(COC(=O)N2CC[C@H](CNc3ncccn3)C(F)(F)C2)cc1 [E1-22.2^B′]	significantly reduced grooming	33 days	-9%	-13%	-92%	-68%	-93%	-97%	14%	16%	-88%	-99%	fully efficacious	–	–	–
about 8 hours	FC(F)c1ccc(C(F)(F)CN2CCC(Nc3ncnc4[nH]ccc34)CC2)cc1 [C-179^A′]	significantly reduced grooming	33 days	–	–	–	9%	-96%	-94%	–	–	-81%	-99%	–	33 days	-1.1%	-81%
about 8 hours	Cc1ccc(COC(=O)N2CC[C@H](CNc3cnc(C)cn3)C(F)(F)C2)cc1 [E1-21.26^B′]	–	–	–	–	–	-14%	-97%	-96%	–	–	-41%	-78%	–	–	8%	–
